Measured values from patent publication US20120003655A1, “IDENTIFICATION OF NEUROPROTECTIVE AGENTS USING PRO-INFLAMMATORY HUMAN GLIAL CELLS” (The Salk Institute for Biological Studies, priority 2008, published 2012).

What was measured:
[1] = system: interaction of Nurr1 and p65; experiment: Co-immunoprecipitation of Nurr1 and p65 in LPS-stimulated BV2 cells; format: cell-based, mouse; settings: SB21 1 h prior to LPS (1 μg/ml), co-IP and Western blot
Protocol: (§1) FIGS. 12A-I show Nurr1 acting as an RXR-independent, GSK3β-dependent transrepressor for NF-κB. (FIG. 12A) Nurr1 is recruited to the TNFα-promoter in response to LPS. This recruitment is blocked by the GSK3β-specific inhibitor SB216763 (SB21). BV2 cells were pre-incubated with DMSO or 30 μM SB21 for 1 h followed by LPS stimulation for the indicated times before ChIP assay. […] (FIG. 12B) Nurr1-mediated repression is independent of DNA binding and RXR dimerization. RAW264.7 cells were transfected with wild type Nurr1, P-box mutant Nurr1C280A/E281A (CEAA) and I-box mutant Nurr1K555A/L556A/L227A (KLL). iNOS-promoter activity in RAW264.7 cells measured by luciferase-reporter assay. *, p<0.01 compared to control (Mock). (FIG. 12C) siRNA against Ubc9 abolishes Nurr1-mediated transrepression of iNOS-promoter activity. *, p<0.01 compared to Nurr1 with control siRNA. (FIG. 12D) K558 and K576 are the predominant SUMOylation sites of Nurr1. […] Equal loading was determined by re-blotting using anti-Nurr1 antibody. […] Nurr1 expression vector was transfected into RAW264.7 cells together with control siRNA or siRNA against GSK3β and iNOS-promoter activity was determined as described before. *, p<0.01 compared to Nurr1 with control siRNA. (FIG. 12I) S468A mutant of p65 abolishes Nurr1-mediated repression of iNOS-promoter activity. iNOS-promoter activity was determined as described before. […]

[2] = system: recruitment of Nurr1 at iNOS-promoter; experiment: ChIP assay, Nurr1 recruitment to iNOS-promoter in mouse primary astrocytes; format: cell-based; settings: SB21 pre-incubation, IL1β stimulation
Protocol: FIGS. 15A-I show the CoREST complex requirement for Nurr1-mediated repression in astrocytes. (FIG. 15A) IL1β stimulation enhances physical association of Nurr1 and p65 in mouse primary astrocytes. Lysates of astrocytes stimulated with IL1β (10 ng/ml) for the indicated times were immunoprecipitated with anti-Nurr1 antibody and Western blots were developed with anti-p65 antibody. Equal loading was determined as described in FIG. 12F. (FIG. 15B) Recruitment of Nurr1 and p65 to iNOS-promoter in mouse primary astrocyte shown by ChIP assay. Data represent fold enrichment of iNOS-promoter precipitated with the indicated antibodies compared to control IgG as determined by qPCR. […] Mouse primary astrocytes were treated with SB21 as described in FIG. 12A. Data represent fold enrichment of iNOS-promoter precipitated with antibody against Nurr1 compared to control IgG as determined by qPCR. […] Data represent fold enrichment of iNOS-promoter precipitated with the indicated antibodies compared to control IgG as determined by qPCR. […] Cells were stimulated with 10 ng/ml IL1β for 6 h and mRNA expression of iNOS (FIG. 15F), CSF1 (FIG. 15G) and Ncf1 (FIG. 15H) was determined by qPCR. […]
(§2) ChIP assay. […] Quantitative PCR (qPCR) was performed with SYBR-GREEN PCR master Mix (ABI) or SYBR-GreenER (Invitrogen) and analyzed on a 7200 real time PCR system (ABI).

[3] = system: recruitment of Nurr1 to the TNFα-promoter; experiment: ChIP assay, Nurr1 recruitment to TNFα-promoter in BV2 cells; format: cell-based, mouse; settings: 30 μM SB21 for 1 h followed by LPS
Protocol: as §1, with “(Mock).” for “(Mock). (FIG. 12C) siRNA against Ubc9 abolishes Nurr1-mediated transrepression of iNOS-promoter activity. *, p<0.01 compared to Nurr1 with control siRNA. (FIG. 12D) K558 and K576 are the predominant SUMOylation sites of Nurr1.”
as §2

ALS = ALS patients; cited from earlier work
[4] = target: T1, Nurr1 (NR4A2), endogenous protein in mouse cells (mouse, UniProt Q06219 1-598); experiment: co-IP from BV2 lysates, anti-Nurr1 IP, anti-p65 Western blot (FIG. 12F)
T1 construct: Endogenous protein, immunoprecipitated or blotted with anti-Nurr1 (E-20, Santa Cruz)
Protocol: Lysates of BV2 cells stimulated with LPS (1 μg/ml) for the indicated times were immunoprecipitated with anti-Nurr1 antibody and Western blots were developed with anti-p65 antibody. Equal loading was determined by re-blotting using anti-Nurr1 antibody. (FIG. 12G) SB21 impairs the binding of Nurr1 and p65 in a dose-dependent manner. BV2 cells were incubated with SB21 at the indicated concentrations for 1 h prior to stimulation with LPS (1 μg/ml). IP and Western blotting were performed as described in FIG. 12F. (FIG. 12H) siRNA against GSK3β abolishes Nurr1-mediated repression of iNOS-promoter activity. Nurr1 expression vector was transfected into RAW264.7 cells together with control siRNA or siRNA against GSK3β and iNOS-promoter activity was determined as described before. *, p<0.01 compared to Nurr1 with control siRNA. (FIG. 12I) S468A mutant of p65 abolishes Nurr1-mediated repression of iNOS-promoter activity. iNOS-promoter activity was determined as described before.
Co-immunoprecipitations and Western blotting. Hela cells or NIH3T3 cells were transfected using Lipofectamine 2000 reagent (Invitrogen) following manufacturer's protocol. Transfected cells were stimulated by 10 ng/ml recombinant human or mouse mIL1β (R & D system) for the indicated times prior to harvesting. […]

T1 sequence (Q06219 whole entry): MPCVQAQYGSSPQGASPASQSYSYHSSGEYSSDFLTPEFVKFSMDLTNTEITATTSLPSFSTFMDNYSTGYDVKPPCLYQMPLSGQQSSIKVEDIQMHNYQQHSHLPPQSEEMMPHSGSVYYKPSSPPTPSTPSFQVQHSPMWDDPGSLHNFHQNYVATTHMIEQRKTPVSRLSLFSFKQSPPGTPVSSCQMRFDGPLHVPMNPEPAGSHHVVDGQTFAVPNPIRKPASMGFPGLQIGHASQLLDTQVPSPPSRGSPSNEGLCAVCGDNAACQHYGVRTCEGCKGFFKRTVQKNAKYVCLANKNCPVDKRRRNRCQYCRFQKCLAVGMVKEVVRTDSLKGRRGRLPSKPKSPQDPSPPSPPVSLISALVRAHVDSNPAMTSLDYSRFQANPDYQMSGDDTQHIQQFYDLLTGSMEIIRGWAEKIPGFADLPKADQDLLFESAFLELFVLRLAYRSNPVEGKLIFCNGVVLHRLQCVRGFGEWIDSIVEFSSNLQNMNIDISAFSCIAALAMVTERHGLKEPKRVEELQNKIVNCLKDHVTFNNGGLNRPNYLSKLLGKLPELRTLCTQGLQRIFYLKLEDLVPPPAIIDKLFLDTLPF

For `Cn1cc(C2=C(c3ccc(Cl)cc3Cl)C(=O)NC2=O)c2ccccc21` [SB216763], the “interaction (binding) of Nurr1 and p65” value [1] was “inhibited the interaction of Nurr1 and p65 in BV2 cells in a dose-dependent manner”, the “interaction (binding) of Nurr1 and p65” value ([1]; listed as SB21) was “impairs the binding of Nurr1 and p65 in a dose-dependent manner” and the “recruitment of Nurr1 at iNOS-promoter” value [2] was “Altered recruitment of Nurr1 to iNOS-promoter”. The “recruitment of Nurr1 at iNOS-promoter” value ([2]; listed as SB21) was “decreases the recruitment of Nurr1 at iNOS-promoter”, the “recruitment of Nurr1 to the TNFα-promoter” value [3] was “blocked” and the “recruitment of Nurr1 to the TNFα-promoter” value ([3]; listed as SB21) was “prevented the recruitment of Nurr1 to the TNFα-promoter”.

For `Nc1nc2ccc(OC(F)(F)F)cc2s1` [riluzole], the “extension of the course of the disease” value (ALS) is listed as 2 months.

B1: NF-κB-p65, endogenous protein in mouse cells (other, UniProt Q04207 1-549, looked up)
chain: MDDLFPLIFPSEPAQASGPYVEIIEQPKQRGMRFRYKCEGRSAGSIPGERSTDTTKTHPTIKINGYTGPGTVRISLVTKDPPHRPHPHELVGKDCRDGYYEADLCPDRSIHSFQNLGIQCVKKRDLEQAISQRIQTNNNPFHVPIEEQRGDYDLNAVRLCFQVTVRDPAGRPLLLTPVLSHPIFDNRAPNTAELKICRVNRNSGSCLGGDEIFLLCDKVQKEDIEVYFTGPGWEARGSFSQADVHRQVAIVFRTPPYADPSLQAPVRVSMQLRRPSDRELSEPMEFQYLPDTDDRHRIEEKRKRTYETFKSIMKKSPFNGPTEPRPPTRRIAVPTRNSTSVPKPAPQPYTFPASLSTINFDEFSPMLLPSGQISNQALALAPSSAPVLAQTMVPSSAMVPLAQPPAPAPVLTPGPPQSLSAPVPKSTQAGEGTLSEALLHLQFDADEDLGALLGNSTDPGVFTDLASVDNSEFQQLLNQGVSMSHSTAEPMLMEYPEAITRLVTGSQRPPDPAPTPLGTSGLPNGLSGDEDFSSIADMDFSALLSQISS
notes: Endogenous protein, detected with anti-p65 (C-20, Santa Cruz)
B1: binds [4].
